Assay results: patent US7423177B2, “Carboxamide derivatives as therapeutic agents” (TransTech Pharma, Inc., priority 2001, dated 2008)
Counter-ions that a name gives are not always drawn.

Tests used:
[1] = target: T1, RAGE (sRAGE) binding to S100b (Homo sapiens, UniProt Q15109); test: ELISA assay: inhibition of sRAGE binding to plate-bound S100b; settings: ligand S100b coated on plate, concentration at which 50% signal has been inhibited, read-out: ELISA Assay IC50 (μM) S-100b
T1 construct: extracellular domain can be isolated by proteolysis of RAGE to generate soluble RAGE (sRAGE) comprised of the V and C domains
T1 sequence (Q15109 23-342 limits assumed): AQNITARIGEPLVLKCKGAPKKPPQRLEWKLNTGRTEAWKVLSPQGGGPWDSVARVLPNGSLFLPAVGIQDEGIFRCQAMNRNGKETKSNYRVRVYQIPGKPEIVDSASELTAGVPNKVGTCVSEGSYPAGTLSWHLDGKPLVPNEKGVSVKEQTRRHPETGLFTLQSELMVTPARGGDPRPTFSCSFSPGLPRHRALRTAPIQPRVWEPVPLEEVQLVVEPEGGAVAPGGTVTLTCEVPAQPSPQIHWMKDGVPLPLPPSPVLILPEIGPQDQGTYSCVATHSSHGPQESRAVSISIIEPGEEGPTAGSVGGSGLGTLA
Protocol: (§1) This method is also described and claimed in co-pending U.S. Ser. No. 09/799,152 filed Mar. 5, 2001.
(§2) S100b, β-amyloid and CML (500 ng/100 μL/well) in 100 mM sodium bicarbonate/sodium carbonate buffer (pH 9.8) is loaded onto the wells of a NUNC Maxisorp flat bottom 96 -well microtitre plate. The plate is incubated at 4° C. overnight. The wells are aspirated and treated with 50 mM imidazole buffer saline (pH 7.2) (with 1 mM CaCl2/MgCl2) containing 1% bovine serum albumin (BSA) (300 μL/well) for two h at 37° C.
(§3) Test compounds are dissolved in nanopure water (concentration: 10-100 μM). DMSO may be used as co-solvent. 25 μL of test compound solution in 2% DMSO is added, along with 75 μL SRAGE (4.0×10^−4 mg/mL FAC) to each well and samples are incubated for 1 h at 37° C. The wells are washed 3 times with 155 mM NaCl pH 7.2 buffer saline and are soaked 10 seconds between each wash.
(§4) Non-Radioactive Binding is Performed by Adding:
(§5) 10 μL Biotinylated goat F(ab′)2 Anti-mouse IgG. (8.0×10^−4 mg/mL, FAC)
(§6) 10 μL Alk-phos-Sterptavidin (3×10^−3 mg/mL FAC)
(§7) 10 μL Polyclonal antibody for sRAGE (FAC 6.0×10^−3 mg/mL)
(§8) to 5 mL 50 mM imidazole buffer saline (pH 7.2) containing 0.2% bovine serum albumin and 1 mM […]. The mixture is incubated for 30 minutes at 37° C. 100 μL complex is added to each well and incubation is allowed to proceed at rt for 1 h. Wells are washed 3 times with wash buffer and soaked 10 s between each wash. 100 μL 1 mg/mL (pNPP) in 1 M diethanolamine (pH adjusted to 9.8 with HCl) is added. Color is allowed to develop in the dark for 1 to 2 h at rt. The reaction is quenched with 10 μL of stop solution (0.5 N NaOH in 50% ethanol) and the absorbance is measured spectrophotometrically with a microplate reader at 405 nm.

[2] = target: T2, RAGE (sRAGE) binding to Carboxymethyl Lysine (CML) (Homo sapiens, UniProt Q15109); test: ELISA assay: inhibition of sRAGE binding to plate-bound CML; settings: ligand CML coated on plate, concentration at which 50% signal has been inhibited
T2 construct: extracellular domain can be isolated by proteolysis of RAGE to generate soluble RAGE (sRAGE) comprised of the V and C domains
T2 sequence (Q15109 23-342 limits assumed): as above
Protocol: as §1, §2, §3, §4, §5, §6, §7, §8

[3] = target: T3, RAGE (sRAGE) binding to β-amyloid (Homo sapiens, UniProt Q15109); test: ELISA assay: inhibition of sRAGE binding to plate-bound β-amyloid; settings: ligand β-amyloid coated on plate, concentration at which 50% signal has been inhibited
T3 construct: extracellular domain can be isolated by proteolysis of RAGE to generate soluble RAGE (sRAGE) comprised of the V and C domains
T3 sequence (Q15109 23-342 limits assumed): as above
Protocol: as §1, §2, §3, §4, §5, §6, §7, §8

Compound `CCN(CC)CCCOc1ccc(NC(=O)CCc2ccc(OCc3ccccc3)cc2)c(OCCCN(CC)CC)c1` [Example 1, 3-(4-Benzyloxyphenyl)propionic Acid 2,4-Di-(3-Diethylamino-1-propoxy)aniline Amide] has an IC50 [1] of 1 to 5 µM.
Work on `CCN(CC)CCCOc1ccc(NC(=O)CC(NC(=O)OCC2c3ccccc3-c3ccccc32)c2cccc(OC(C)(C)C)c2)c(OCCCN(CC)CC)c1` (stereo not drawn) [Example 2, 3-(3-Tert-butoxyphenyl)-3-(9-fluorenylmethoxycarbonylamino)propionic Acid 2,4-Di-(3-diethylaminopropoxy)aniline Amide] yielded an IC50 [2] of 0.5 to 1 µM, an IC50 [3] of 1 to 5 µM and an IC50 [1] of less than 0.5 µM.
For `CCN(CC)CCCOc1ccc(NC(=O)CC(N)c2cccc(OC(C)(C)C)c2)c(OCCCN(CC)CC)c1` (stereo not drawn) [Example 3, 3-(3-Tert-butoxyphenyl)-3-aminopropionic Acid 2,4-Di-(3-diethylaminopropoxy)aniline Amide], the IC50 [2] was 1 to 5 µM, the IC50 [3] was 1 to 5 µM and the IC50 [1] was 1 to 5 µM.
Compound `CCCCOc1cc(C(=O)OCCN(CC)CC)ccc1NC(=O)C(N)CC1CCOCC1` (stereo not drawn) [Example 4, 3-(4-Tetrahydropyranyl)-2-aminopropionic Acid 4-Diethylaminoethoxycarbonyl-2-butoxyaniline Amide Dihydrochloride] has an IC50 [1] of 10 to 20 µM.
`CCN(CC)CCCOc1ccc(NC(=O)[C@@H]2C[C@@H](OC(C)(C)C)CN2)c(OCCCN(CC)CC)c1` [Example 5, (2S, 4R)-4-Tert-Butoxypyrrolidine-2-carboxylic acid 2,4-Di(3-diethylamino-1-propoxy)aniline Amide] showed an IC50 [1] of 1 to 5 µM.
Work on `CCCCOc1cc(C(=O)OCCN(CC)CC)ccc1NC(=O)[C@@H]1Cc2ccccc2CN1` [Example 6, (3S)-1,2,3,4-Tetrahydroisoquinoline-3-carboxylic Acid 4-Diethylaminoethoxycarbonyl-2-butoxyaniline Amide Dihydrochloride] yielded an IC50 [2] of 5 to 10 µM, an IC50 [3] of 10 to 20 µM and an IC50 [1] of 10 to 20 µM.
`CCCCOc1cc(C(=O)OCCN(CC)CC)ccc1NC(=O)[C@@H](Cc1ccc(OCc2ccccc2)cc1)n1ccnc1` [Example 7, (R)-3-(4-Benzyloxyphenyl)-2-(1-imidazolyl)propionic Acid 4-Diethylaminoethoxycarbonyl-2-butoxyaniline Amide] was tested, and the IC50 [2] was 1 to 5 µM, the IC50 [3] was 1 to 5 µM and the IC50 [1] was 0.5 to 1 µM.
Work on `CCN(CC)CCCOc1ccc(NC(=O)CC(NC(=O)OCC2c3ccccc3-c3ccccc32)c2ccc(OC(C)(C)C)cc2)c(OCCCN(CC)CC)c1` (stereo not drawn) [Example 8, 3-(4-Tert-butoxyphenyl)-3-(9-fluorenylmethoxycarbonylamino)propionic Acid 2,4-Di-(3-diethylaminopropoxy)aniline Amide] yielded an IC50 [2] of 0.5 to 1 µM, an IC50 [3] of 0.5 to 1 µM and an IC50 [1] of 0.5 to 1 µM.
Compound `CCN(CC)CCCOc1ccc(NC(=O)CC(N)c2ccc(OC(C)(C)C)cc2)c(OCCCN(CC)CC)c1` (stereo not drawn) [Example 9, 3-amino-3-(4-tert-butoxyphenyl)propionic Acid 2,4-Di-(3-diethylaminopropoxy)anline Amide] has an IC50 [2] of 1 to 5 µM, an IC50 [3] of 1 to 5 µM and an IC50 [1] of 1 to 5 µM.
In the case of `CCN(CC)CCCOc1ccc(NC(=O)CC(NC(=O)OCC2c3ccccc3-c3ccccc32)c2ccccc2OC(C)(C)C)c(OCCCN(CC)CC)c1` (stereo not drawn) [Example 10, 3-(9-fluorenylmethoxycarbonylamino)-3-(2-tert-butoxyphenyl)propionic Acid 2,4-Di-(3-diethylaminopropoxy)aniline Amide], the IC50 [2] is reported as 1 to 5 µM, the IC50 [3] is reported as 1 to 5 µM and the IC50 [1] is reported as 0.5 to 1 µM.
Compound `CCN(CC)CCCOc1ccc(NC(=O)CC(N)c2ccccc2OC(C)(C)C)c(OCCCN(CC)CC)c1` (stereo not drawn) [Example 11, 3-amino-3-(2-tert-butoxyphenyl)propionic Acid 2,4-Di-(3-diethylaminopropoxy)aniline Amide] has an IC50 [2] of 1 to 5 µM, an IC50 [3] of 1 to 5 µM and an IC50 [1] of 1 to 5 µM.
`CCN(CC)CCCOc1ccc(NC(=O)CC(NC(C)C)c2cccc(OC(C)(C)C)c2)c(OCCCN(CC)CC)c1` (stereo not drawn) [Example 12, 3-Isopropylamino-3-(3-tert-butoxyphenyl)propionic Acid 2,4-Di-(3-diethylaminopropoxy)aniline Amide] gave an IC50 [2] of 0.5 to 1 µM, an IC50 [3] of 1 to 5 µM and an IC50 [1] of 1 to 5 µM.
With `CCN(CC)CCCOc1ccc(N(Cc2ccccc2)C(=O)[C@@H](Cc2ccc(OCc3ccccc3)cc2)NC(=O)OC(C)(C)C)cc1` [Example 13, (2R)-2-tert-butoxycarbonylamino-3-[4-(benzyloxy)phenyl]propionic Acid 4-(3-diethylaminopropoxy)-N-benzylaniline Amide] the IC50 [2] was 5 to 10 µM, the IC50 [3] was 5 to 10 µM and the IC50 [1] was 5 to 10 µM.
In the case of `CCN(CC)CCCOc1ccc(N(CC2CCCC2)C(=O)[C@@H](Cc2ccc(OCc3ccccc3)cc2)NC(=O)OC(C)(C)C)cc1` [Example 14, (2R)-2-tert-butoxycarbonylamino-3-[4-(benzyloxy)phenyl]propionic Acid 4-(3-diethylaminopropoxy)-N-cyclopentylmethylaniline Amide], the IC50 [2] is reported as 1 to 5 µM, the IC50 [3] is reported as 1 to 5 µM and the IC50 [1] is reported as 1 to 5 µM.
`CCN(CC)CCCOc1ccc(N(CC2CCCCC2)C(=O)[C@H](N)Cc2ccc(OCc3ccccc3)cc2)cc1` [Example 16, (2R)-2-amino-3-[4-(benzyloxy)phenyl]propionic Acid 4-(3-diethylaminopropoxy)-N-cyclohexylmethylaniline Amide] gave an IC50 [2] of 1 to 5 µM, an IC50 [3] of 1 to 5 µM and an IC50 [1] of 1 to 5 µM.
In the case of `CCN(CC)CCCOc1ccc(N(CC2CCCC2)C(=O)[C@H](N)Cc2ccc(OCc3ccccc3)cc2)cc1` [Example 17, (2R)-2-amino-3-[4-(benzyloxy)phenyl]propionic Acid 4-(3-diethylaminopropoxy)-N-cyclopentylmethylaniline Amide], the IC50 [2] is reported as 10 to 20 µM, the IC50 [3] is reported as 10 to 20 µM and the IC50 [1] is reported as 5 to 10 µM.
Compound `CCCCN(C(=O)[C@@H](Cc1ccc(OCc2ccccc2)cc1)NC(=O)OC(C)(C)C)c1ccc(OCCCN(CC)CC)cc1` [Example 18, (2R)-2-tert-butoxycarbonylamino-3-[4-(benzyloxy)phenyl]propionic Acid 4-(3-diethylaminopropoxy)-N-butylaniline Amide] has an IC50 [2] of 1 to 5 µM, an IC50 [3] of 1 to 5 µM and an IC50 [1] of 1 to 5 µM.
Work on `CCCCN(C(=O)[C@H](N)Cc1ccc(OCc2ccccc2)cc1)c1ccc(OCCCN(CC)CC)cc1` [Example 19, (2R)-2-amino-3-[4-(benzyloxy)phenyl]propionic Acid 4-(3-diethylaminopropoxy)-N-butylaniline Amide] yielded an IC50 [2] of 1 to 5 µM, an IC50 [3] of 1 to 5 µM and an IC50 [1] of 1 to 5 µM.
Compound `CCCCN(C(=O)[C@@H](Cc1ccc(OCc2ccccc2)cc1)NC(=O)OC(C)(C)C)c1cccc(OCCCN(CC)CC)c1` [Example 20, (2R)-2-tert-butoxycarbonylamino-3-[4-(benzyloxy)phenyl]propionic Acid 3-(3-diethylaminopropoxy)-N-butylaniline Amide] has an IC50 [2] of 1 to 5 µM, an IC50 [3] of 1 to 5 µM and an IC50 [1] of 1 to 5 µM.
In the case of `CCCCN(C(=O)[C@H](N)Cc1ccc(OCc2ccccc2)cc1)c1cccc(OCCCN(CC)CC)c1` [Example 21, (2R)-2-amino-3-[4-(benzyloxy)phenyl]propionic Acid 3-(3-diethylaminopropoxy)-N-butylaniline Amide], the IC50 [2] is reported as 1 to 5 µM, the IC50 [3] is reported as 1 to 5 µM and the IC50 [1] is reported as 1 to 5 µM.
